Test results as given in US11702415B2, “Crystalline hydrate of a JAK inhibitor compound” (THERAVANCE BIOPHARMA R&D IP, LLC, priority 2020, dated 2023).

What was measured:
[1] = Pharmacokinetics in plasma and lung in mouse; assay type: in vivo; conditions: single oral aspiration, 0.2 mg/mL 50 μL
Procedure: Plasma and lung concentrations of test compound and ratio thereof were determined in the following manner. BALB/c mice from Charles River Laboratories were used in the assay. […] At various time points (typically 0.167, 2, 6, 24 hr) post dosing, blood samples were removed via cardiac puncture and intact lungs were excised from the mice.

[2] = test system: IL-13 induced pSTAT6 in lung tissue; experiment: Murine model of IL-13 induced pSTAT6 induction in lung tissue; assay type: in vivo; conditions: mouse lung, oral aspiration 1 mg/mL 50 μL, IL-13 challenge 4 h after dose
Procedure: IL-13 binds to cell surface receptors activating members of the Janus family of kinases (JAK) which then phosphorylate STAT6 and subsequently activates further transcription pathways. In the described model, a dose of IL-13 was delivered locally into the lungs of mice to induce the phosphorylation of STAT6 (pSTAT6) which is then measured as the endpoint.
Activity in the model is evidenced by a decrease in the level of pSTAT6 present in the lungs of treated animals at 5 hours compared to the vehicle treated, IL-13 challenged control animals. The difference between the control animals which were vehicle-treated, IL-13 challenged and the control animals which were vehicle-treated, vehicle challenged dictated the 0% and 100% inhibitory effect, respectively, in any given experiment.

[3] = Stability study at accelerated temperature and relative humidity (HPLC); assay type: physicochemical; conditions: samples of Form I
Lung S9 metabolism = assay type: in vitro ADME, human; conditions: for Compound Remaining at 60 min: human lung S9, 1 μM compound, 1 mg/mL protein, NADPH and PAPS; for Sulfate Appearance: human lung S9, qualitative, O-sulfate metabolite peak
Procedure: The in vitro metabolic stability of compounds 1 and C-1 were evaluated in human lung S9 fraction (1 μM compound; 1 mg/mL S9 protein). The time 0, 15, 30, and 60 minute samples were analyzed for parent compound by high resolution LC-MS/MS. Lung S9 fractions from human (lot 1410245) were purchased from XenoTech LLC (Lenexa, Kans.). NADPH (Sigma Aldrich, N1630) and 3-phosphoadenosine 5-phosphosulfate (PAPS) (Sigma Aldrich, A1651) were purchased from Sigma Aldrich (St. Louis, Mo.). Acetonitrile and water were obtained from VWR (Radnor, Pa.) and were of HPLC grade or better. Raloxifene and formic acid was purchased from Sigma Aldrich (St. Louis, Mo.). Lung S9 incubations were performed in a water bath at 37° C. in a 96-well polypropylene plate. Lung S9 solutions consisted of 100 mM potassium phosphate buffered to pH 7.4 (BD Biosciences, Woburn, Mass.) supplemented with 1 mM NADPH (Sigma-Aldrich, St. Louis, Mo.), 3 mM magnesium chloride (Sigma Aldrich, M1028) and in the presence of 100 μM PAPS (Sigma-Aldrich, St. Louis, Mo.) cofactor, with final incubation protein concentrations of 1 mg/mL. 10 mM DMSO stocks of Raloxifene (n=1) and compound (n=1) were diluted in buffer and spiked into the incubations to yield 1 μM substrate concentrations ([…]). Incubation volumes consisted of 400 μL and time points were taken at 0, 15, 30, and 60 minutes by the removal of a 70 μL aliquot and dilution into 140 μL acetonitrile (0% formic acid). All samples were centrifuged at 2250 g for 10 minutes at 5° C. Supernatant (50 μL) was taken from the centrifuged samples and diluted into 100 μL HPLC water containing internal standard. The samples were run on a Dionex Ultimate 3000 Auto sampler and analyzed using a Thermo Q-Exactive High Resolution Mass Spectrometer (Thermo, Waltham, Mass.) in Full Scan mode in conjunction with an Atlantis T3 column 3 μM-2.1×50 mm (Waters Inc., 186003717). Mobile Phase A consisted of Water+0.2% formic acid and Mobile Phase B consisted of acetonitrile+0.2% formic acid. Peak integration was accomplished using Gubbs GMSU software (Gubbs Inc., Alpharetta, Ga.). For each sample, peak area ratios were calculated by dividing the analyte peak area by the internal standard peak area. For each incubation, the peak area ratios of the analytes in each t0 was set to 100%, and the peak areas ratios from the 60-minute samples were converted to percentages remaining relative to the corresponding t0. Determination of sulfate metabolite formation was made qualitatively by observation of early-eluting peak in the parent ion channel which, based on historical internal data, corresponded to the O-sulfate metabolite of each parent compound.

[4] = test system: hospitalized patients with COVID-19; conditions: in combination with remdesivir versus placebo with remdesivir, within 29 days after initiating treatment; cited from earlier work
[5] = test system: patients with steroid-refractory acute or chronic GVHD; conditions: 95 patients, salvage therapy, including lung GVHD; cited from earlier work
[6] = Dynamic moisture sorption assessment; assay type: physicochemical
Procedure: Dynamic moisture sorption (DMS) measurement was performed using a VTI atmospheric microbalance, SGA-100 system (VTI Corp., Hialeah, Fla. 33016). A weighed sample was used and the humidity was lowest possible value (close to 0% RH) at the start of the analysis. The DMS analysis consisted of an initial drying step (˜0% RH) for 16 hours, followed by two cycles of sorption and desorption with a scan rate of 5% RH/step over the humidity range of 5% RH to 90% RH. The DMS run was performed isothermally at 25° C.

CCc1cc(O)ccc1-c1ccc2c(-c3nc4c([nH]3)CN(C(C)C)[C@H](C(=O)N3CC(N(C)C)C3)C4)n[nH]c2c1 [Compound 1, (S)-(3-(dimethylamino)azetidin-1-yl)(2-(6-(2-ethyl-4-hydroxyphenyl)-1H-indazol-3-yl)-5-isopropyl-4,5,6,7-tetrahydro-3H-imidazo[4,5-c]pyridin-6-yl)methanone]
Lung Tissue AUC(0-24) [1]: 54.5 µg·h/g
pSTAT6 inhibition at 5 hours [2]: 75
Compound 1 content by HPLC ([3]; T = 0): 97.5% a/a
Compound 1 content by HPLC ([3]; T = 1 month, 40° C./75% RH): 97.5% a/a
Compound 1 content by HPLC ([3]; T = 3 month, 25° C./60% RH): 97.6% a/a
Compound 1 content by HPLC ([3]; T = 3 month, 40° C./75% RH): 97.5% a/a
sulfation metabolism compared to fluoro analog C-1 (Lung S9 metabolism; human lung S9): significantly less sulfation metabolism
Compound Remaining at 60 min (Lung S9 metabolism): 81%
Sulfate Appearance (Lung S9 metabolism): Yes

CCS(=O)(=O)N1CC(CC#N)(n2cc(-c3ncnc4[nH]ccc34)cn2)C1 [baricitinib]
time to recovery [4]: reduce time to recovery

N#CC[C@H](C1CCCC1)n1cc(-c2ncnc3[nH]ccc23)cn1 [ruxolitinib]
clinical response in GVHD patients [5]: complete or partial response to ruxolitinib in the majority of patients

CCc1cc(O)ccc1-c1ccc2c(-c3nc4c([nH]3)CN(C(C)C)[C@H](C(=O)N3CC(N(C)C)C3)C4)n[nH]c2c1 [Form I, (S)-(3-(dimethylamino)azetidin-1-yl)(2-(6-(2-ethyl-4-hydroxyphenyl)-1H-indazol-3-yl)-5-isopropyl-4,5,6,7-tetrahydro-3H-imidazo[4,5-c]pyridin-6-yl)methanone hydrate Form I]
hygroscopicity ([6]; dynamic moisture sorption, 25° C.): moderately hygroscopic
total moisture uptake ([6]; relative humidity between 0% and 90% at room temperature): about 5.3%

CCc1cc(O)c(F)cc1-c1ccc2c(-c3nc4c([nH]3)CN(C(C)C)[C@H](C(=O)N3CC(N(C)C)C3)C4)n[nH]c2c1 [Compound C-1, (S)-(3-(dimethylamino)azetidin-1-yl)(2-(6-(2-ethyl-5-fluoro-4-hydroxyphenyl)-1H-indazol-3-yl)-5-isopropyl-4,5,6,7-tetrahydro-3H-imidazo[4,5-c]pyridin-6-yl)methanone, reference compound]
Compound Remaining at 60 min (Lung S9 metabolism): 6%
Sulfate Appearance (Lung S9 metabolism): Yes
